Assay results reported in US20220073557A1, “FLUORINATED BILE ACIDS” (NZP UK LIMITED, priority 2018, published 2022).

Assays:
[1] = system: mitochondrial respiratory chain complex I; experiment: Complex I assay, left striatum brain homogenate of mice dosed with or without MPTP; assay type: in vivo, mouse; details: left striatum mouse brain homogenate; MPTP alone; FIG. 4
Protocol: Ex vivo mice brain was homogenated in a buffer of 250 mM sucrose, 20 mM HEPES, 3 mM EDTA, pH 7.5 at 4° C. Homogenisation was carried out using a Dounce homogenizer, for cortex samples, and by repetitive passage through a 0.5 mm syringe for isolated striatum. Samples were then incubated with 30 μl of detergent from the AbCam colorimetric Complex I assay kit on ice for 20 minutes. Samples are then centrifuged at 13,000 rpm for 30 mins. Triplicate samples per condition were blocked using the kit blocking buffer on the AbCam colorimetric Complex I assay kit plate for 3 hours. Samples are then washed using the kit wash buffer 3 times before the addition of the kit assay buffer containing NADH and colorimetric dye. The assay plate is read on a plate reader in a kinetic assay programme reading 450 nm in a 30 second interval for 50 minutes.

[2] = system: sporadic PD patient fibroblasts; experiment: Mitochondrial membrane potential (MMP, TMRM) in sporadic PD patient fibroblasts; assay type: cell-based; details: Homo sapiens, Fibroblast, 24 h; for EC50: read-out: MMP EC50; for activity at 0.3 µM: max response with highest dose (300 nM), read-out: MMP Top (% of vehicle treated); for activity at 60 pM: max response with lowest dose (0.06 nM), read-out: MMP Bottom (% of vehicle treated)
Protocol: (§1) Fibroblasts were cultured in DMEM (Invitrogen) and routinely subcultured every 3-5 days using trypsin to dissociate them.
Fibroblasts were cultured and plated into a Griener black 384 pClear® plate at 10000 cells per well in 50 μl of media volume. The plates are left overnight in an incubator to allow the fibroblasts to adhere to the plate surface. The following morning the Glucose based medium is replaced with 25 μl of Galactose based media. The plates were then dosed with the compounds using an ECHO® 550 liquid handling system. The wells were dosed to provide an 8-point concentration range of 0.06 nM-300 nM of compound. After dosing the wells are topped up with a further 25 μl of Galactose based medium and then left in an incubator for 24 hours. After 24 hours, the medium is removed from the wells and replaced with 25 ul phenol free Minimal essential medium with 100 nM TMRM (Sigma) and 10 μM Hoechst Stain (Sigma). The plate is returned to the incubator for another hour after which the stain medium is removed and replaced with 25 ul Phenol free MEM. The plate is then imaged using an IN Cell high content microscope (GE Healthcare) with 10 fields of view per well in 2 channels, Cy3 excitation 542 nm, emission 604-64 nm; and the DAPI excitation 350 nm, emission 450-55 nm at 37° C. with CO2. After imaging the plate is disposed of and the images are Data mined using the INCell developer Toolkit (GE Healthcare).
(§2) After the assays had been repeated in triplicate per line and compound the data was then inputted into Graph pad Prism 7 software suite where a dose response curve is generated using the default “[Agonist] vs response (three parameters)” equation.
(§3) From this EC50 values, lowest response and maximal response were taken and used to calculate the Geometric mean between the 5 different lines assessed.
The mitochondrial membrane potential was measured in fibroblasts from 6 (Table 1) or 3 (Table 2) patients with sporadic Parkinson's disease when treated with Compounds of the invention or Comparator compounds. The results are shown in Tables 1 and 2, where “Bottom”=max response with lowest dose of compound (0.06 nM) and “top”=max response with highest dose of compound (300 nM).

[3] = system: sAD and familial AD (PSEN1 mutants) patient fibroblasts; experiment: Total cellular ATP levels in Alzheimer's disease patient fibroblasts; assay type: cell-based, human; details: 24 hour treatment at 100 nM, 21% restores to control levels
Protocol: Data shown in the Table 6 below is the mean increase in ATP levels after 24 hour treatment with compounds at 100 nM concentration.

[4] = system: sporadic PD patient fibroblasts; experiment: Cellular ATP levels (ATPlite, normalised to CyQUANT DNA content) in sporadic PD patient fibroblasts; assay type: cell-based; details: Homo sapiens, Fibroblast, 24 h; for EC50: read-out: Cellular ATP levels EC50; for activity at 0.3 µM: max response with highest dose (300 nM), read-out: Cellular ATP levels Top (% of vehicle treated); for activity at 60 pM: max response with lowest dose (0.06 nM), read-out: Cellular ATP levels Bottom (% of vehicle treated)
Protocol: as §1
The ATP protocol is generally as described in Mortiboys et al, “Mitochondrial function and morphology are impaired in parkin-mutant fibroblasts”, Ann Neurol. 2008 November; 64(5):555-65. Briefly, fibroblasts were cultured as and plated into white 384 well plates with 5000 cells per well in 50 μl of media volume. The plates are left overnight in an incubator to allow the fibroblasts to adhere to the plate surface. The following morning the Glucose based medium is replaced with 25 μl of Galactose based medium. The compounds are added to the plates using a ECHO 550 liquid handling system. The wells were dosed to provide an 8-point concentration range of 0.06 nM-300 nM of compound. After dosing the wells are topped up with a further 25 μl of Galactose based medium and then left in an incubator for 24 hours. Following this incubation the medium is removed from the plate and the wells are washed twice with sterile PBS. The wells are filled with 25 μl of Sterile PBS followed by 12.5 μl of Lysis solution from the ATPlite™ Luminescence ATP detection assay system (Perkin Elmer), including 16 cell free wells to use as blank controls. The plate is then placed on a rotary shaker for 5 mins at 700 rpm. Following the shaking 12.5 μl of ATP substrate solution (Perkin Elmer) is added to each well and a further 5 min of shaking. The plate is then placed in darkness for 10 minutes prior to reading. Using a PHERAStar® plate reader, luminescence intensity is recorded. Following the ATP assay the plates are immediately assayed for DNA content in a CyQUANT® assay.
Immediately following The ATP assay DNA content is assessed with the CyQUANT® NF Cell Proliferation Assay Kit (ThermoFisher). CyQUANT® buffer is prepared immediately before the assay and is comprised of 1 ul CyQUANT® dye per ml×1 HBSS solution. 12.5 ul of CyQUANT® buffer is added to each well. Plate left in incubator for 1 hour then read on a PHERAStar® Plate reader with excitation at 497 nm and emission at 520 nm. ATP Quantification for each well is determined using the following formula: […]
as §2, §3
Cellular ATP levels were measured in fibroblasts from 6 (Table 3) or 3 (Table 4) patients with sporadic Parkinson's disease when treated with Compounds of the invention or Comparator compounds. The results are shown in Tables 3 and 4, where “Bottom”=max response with lowest dose of compound (0.06 nM) and “top”=max response with highest dose of compound (300 nM).

[5] = 6 sporadic PD patient fibroblasts
[6] = 3 sporadic PD patient fibroblasts

CN1CC=C(c2ccccc2)CC1 [MPTP, 1-methyl-4-phenyl-1,2,3,6-tetrahydropyridine, reference compound] was tested, and the “Reduction in complex I activity compared with untreated controls” value [1] was 50%.
For C[C@H](CCC(=O)O)[C@H]1CC[C@H]2[C@@H]3[C@H](O)C[C@@H]4C[C@@H](O)[C@@H](F)C[C@]4(C)[C@H]3CC[C@]12C [Compound 2, 2β-fluoro-3β,7α-dihydroxy-5β-cholanic acid], the EC50 [2, 5] was 0.0208 µM, the activity at 0.3 µM [2, 5] was 112% and the activity at 60 pM [2, 5] was 107%. The “% increase over vehicle treated (mean increase in ATP levels)” value [3] was 65%, the EC50 [4, 5] was 0.00108 µM and the activity at 0.3 µM [4, 5] was 113%. The activity at 60 pM [4, 5] was 79.9%.
In the case of C[C@H](CCC(=O)O)[C@H]1CC[C@H]2[C@@H]3[C@H](O)C[C@@H]4C[C@H](O)C(F)(F)C[C@]4(C)[C@H]3CC[C@]12C [Compound 8, 2,2-difluoro-3α,7α-dihydroxy-5β-cholanic acid], the “% increase over vehicle treated (mean increase in ATP levels)” value [3] is reported as 65%.
Molecule C[C@H](CCC(=O)NCCS(C)(=O)=O)[C@H]1CC[C@H]2[C@@H]3[C@@H](O)C[C@@H]4C[C@@H](O)C(F)(F)C[C@]4(C)[C@H]3CC[C@]12C [Compound 27, N-(2,2-difluoro-3β,7β-dihydroxy-5β-cholan-24-oyl) 2-aminoethyl methyl sulfone] has an EC50 [2, 6] of 0.171 µM, an activity at 0.3 µM [2, 6] of 159% and an activity at 60 pM [2, 6] of 103%. It also gave an EC50 [4, 6] of 0.0166 µM, an activity at 0.3 µM [4, 6] of 114% and an activity at 60 pM [4, 6] of 101%.
